Measured values reported in patent US9346820B2, “HIV-1 protease inhibitors having gem-di-fluoro bicyclic P2-ligands” (priority 2013, dated 2016).
Read-outs that look alike come from different tables or passages of the source.

Tests used:
HIV-1MDR/C = experiment: microbe, parasite or virus in culture; format: cell-based; settings: for EC50: Human immunodeficiency virus 1, read-out: EC50 HIV-1MDR/C (X4); for fold change of EC50 HIV-1MDR/C vs HIV-1ERS104pre: number in parentheses
Description: (§1) All primary HIV-1 strains were passaged once or twice in 3-day-old phytohemagglutinin activated peripheral blood mononuclear cells (PHA-PBM), and the culture supernatants were stored at −80° C. until use.
(§2) The susceptibility of HIV-1LAI to various drugs was determined as previously described with minor modifications. Briefly, MT-2 cells (10^4/ml) were exposed to 100 50% tissue culture infectious doses (TCID50) of HIV-1LAI in the presence or absence of various concentrations of drugs in 96-well microculture plates and were incubated at 37° C. for 7 days. After 100 μl of the medium was removed from each well, 3-(4,5-dimetylthiazol-2-yl)-2,5-diphenyltetrazolium bromide (MTT) solution (10 μl, 7.5 mg/ml in phosphate-buffered saline) was added to each well in the plate, followed by incubation at 37° C. for 2 h. […] All assays were performed in duplicate or triplicate. […] To determine the sensitivity of primary HIV-1 isolates to drugs, phytohemagglutinin-stimulated peripheral blood mononuclear cells (PHA-PBMC) (10^6/ml) were exposed to 50 TCID50 of each primary HIV-1 isolate and cultured in the presence or absence of various concentrations of drugs in 10-fold serial dilutions in 96-well microculture plates. In determining the drug susceptibility of certain laboratory HIV-1 strains, MT-4 cells were employed as target cells as previously described with minor modifications. In brief, MT-4 cells (10^5/ml) were exposed to 100 TCID50 of drug-resistant HIV-1 strains in the presence or absence of various concentrations of drugs and were incubated at 37° C. On day 7 of culture, the supernatants were harvested and the amounts of p24 Gag protein were determined by using a fully automated chemiluminescent enzyme immunoassay system (Lumipulse F: Fujirebio Inc., Tokyo). […] All assays were performed in duplicate or triplicate. PHA-PBMs were derived from a single donor in each independent experiment. Thus, for obtaining the data, three different donors were recruited.

HIV-1MDR/MM = experiment: microbe, parasite or virus in culture; format: cell-based; settings: for EC50: Human immunodeficiency virus 1, read-out: EC50 HIV-1MDR/MM (R5); for fold change of EC50 HIV-1MDR/MM vs HIV-1ERS104pre: number in parentheses
Description: as §1, §2

HIV-1MDR/G = experiment: microbe, parasite or virus in culture; format: cell-based; settings: for EC50: Human immunodeficiency virus 1, read-out: EC50 HIV-1MDR/G (X4); for fold change of EC50 HIV-1MDR/G vs HIV-1ERS104pre: number in parentheses
Description: as §1, §2

HIV-1MDR/B = experiment: microbe, parasite or virus in culture; format: cell-based; settings: for EC50: Human immunodeficiency virus 1, read-out: EC50 HIV-1MDR/B (X4); for fold change of EC50 HIV-1MDR/B vs HIV-1ERS104pre: number in parentheses
Description: as §1, §2

HIV-1MDR/TM = experiment: microbe, parasite or virus in culture; format: cell-based; settings: for EC50: Human immunodeficiency virus 1, read-out: EC50 HIV-1MDR/TM (X4); for fold change of EC50 HIV-1MDR/TM vs HIV-1ERS104pre: number in parentheses
Description: as §1, §2

HIV-1MDR/JSL = experiment: microbe, parasite or virus in culture; format: cell-based; settings: for EC50: Human immunodeficiency virus 1, read-out: EC50 HIV-1MDR/JSL (R5); for fold change of EC50 HIV-1MDR/JSL vs HIV-1ERS104pre: number in parentheses
Description: as §1, §2

HIV-1ATV^R5μM = experiment: microbe, parasite or virus in culture; format: cell-based; settings: for EC50: Human immunodeficiency virus 1, MT4, read-out: EC50 HIV-1ATV^R5μM; for fold change of EC50 HIV-1ATV^R5μM vs HIV-1NL4-3: number in parentheses
Description: as §2

HIV-1LPV^R5μM = experiment: microbe, parasite or virus in culture; format: cell-based; settings: for EC50: Human immunodeficiency virus 1, MT4, read-out: EC50 HIV-1LPV^R5μM; for fold change of EC50 HIV-1LPV^R5μM vs HIV-1NL4-3: number in parentheses
Description: as §2

HIV-1APV^R5μM = experiment: microbe, parasite or virus in culture; format: cell-based; settings: for EC50: Human immunodeficiency virus 1, MT4, read-out: EC50 HIV-1APV^R5μM; for fold change of EC50 HIV-1APV^R5μM vs HIV-1NL4-3: number in parentheses
Description: as §2

HIV-1SQV^R5μM = experiment: microbe, parasite or virus in culture; format: cell-based; settings: for EC50: Human immunodeficiency virus 1, MT4, read-out: EC50 HIV-1SQV^R5μM; for fold change of EC50 HIV-1SQV^R5μM vs HIV-1NL4-3: number in parentheses
Description: as §2

in vitro = settings: rat and monkey, Papp
Description: The BBB Kit™ was kept at −80° C. until thawing on day 0 of the experiments. Nutritional medium was added to both brain and blood sides of the wells. This solution consists of DMEM F-12 medium with FCS 10% v/v, heparin 100 μg/ml, basic fibroblast growth factor (bFGF) 1.5 ng/ml, insulin 5 μg/ml, transferrin 5 μg/ml, sodium selenite 5 ng/ml, hydrocortisone 500 nM and gentamycin 50 μg/ml. Fresh medium was added 3 hours after thawing following the manufacturer's instructions, and 24 hours later. The plates were incubated at 37° C. until day 4 of the experiment when the condition of astrocytes was checked under a light microscope. Following this, the integrity of the collagen-coated membrane was verified by the measurement of the transendothelial electrical resistance (TEER) using an ohmmeter provided by the manufacturer. […] Detailed information regarding the components of the BBB Kit as well as its mechanisms can be seen by accessing the manufacturer's website http://www.pharmacocell.co.jp/en/bbb/index_e.html.
Standard curves were generated for each compound on a light spectrophotometer as previously described. 100 μM of each compound was added to the luminal (blood side) of the wells, incubated at 37° C. for 30 minutes and then, the amount of drug that crossed the in vitro BBB was collected and measured under a light spectrophotometer at 230 nanometer absorbances.
Papp was calculated using the following mathematical formula: […]
This model (BBB Kit™) is thought to represent an in vitro BBB model for drug transport assays, permitting an adequate cross-talk of the cell lines involved and provide a way to test an apparent passage of small molecules across the BBB as previously described by Nakagawa et al. (41). […] The concentrations of each compound that permeated into the abluminal interface (termed “brain side”) were determined using a spectrophotometer, 30 min after the addition of each drug to the wells.
The mathematical formula used for the calculation of Papp is described in Materials and Methods.

[1] = test system: HIV-1GRL-04810^RP18, and HIV-1GRL-05010^RP10; experiment: p24 assay, the two GRL-selected variants taken together; format: cell-based; settings: Human immunodeficiency virus 1, read-out: EC50 values against HIV-1GRL-04810^RP18 and HIV-1GRL-05010^RP10
Description: as §2

HIV-1ERS104pre = experiment: p24 Gag production inhibition in PHA-PBMs, wild-type clinical isolate; format: cell-based
Description: as §1, §2

HIV-1LAI = experiment: Drug susceptibility MTT assay, MT-2 cells exposed to HIV-1LAI; format: cell-based; settings: for EC50: Human immunodeficiency virus 1, MT2, MT-2 cells, 100 TCID50, MTT assay, read-out: EC50 HIV-1LAI; for Selectivity Index: ratio of CC50 to EC50 against HIV-1LAI
Description: as §2

[2] = Human immunodeficiency virus 1, PHA-PBMs, p24 Gag endpoint, read-out: EC50 HIV-1ERS104pre (X4)

Row | Compound | EC50 (HIV-1MDR/C) [µM] | fold change of EC50 HIV-1MDR/C vs HIV-1ERS104pre (HIV-1MDR/C) [fold] | EC50 (HIV-1MDR/MM) [µM] | fold change of EC50 HIV-1MDR/MM vs HIV-1ERS104pre (HIV-1MDR/MM) [fold] | EC50 (HIV-1MDR/G) [µM] | fold change of EC50 HIV-1MDR/G vs HIV-1ERS104pre (HIV-1MDR/G) [fold] | EC50 (HIV-1MDR/B) [µM] | fold change of EC50 HIV-1MDR/B vs HIV-1ERS104pre (HIV-1MDR/B) [fold] | EC50 (HIV-1MDR/TM) [µM] | fold change of EC50 HIV-1MDR/TM vs HIV-1ERS104pre (HIV-1MDR/TM) [fold] | EC50 (HIV-1MDR/JSL) [µM] | fold change of EC50 HIV-1MDR/JSL vs HIV-1ERS104pre (HIV-1MDR/JSL) [fold] | EC50 (HIV-1ATV^R5μM) [µM] | fold change of EC50 HIV-1ATV^R5μM vs HIV-1NL4-3 (HIV-1ATV^R5μM) [fold] | EC50 (HIV-1LPV^R5μM) [µM] | fold change of EC50 HIV-1LPV^R5μM vs HIV-1NL4-3 (HIV-1LPV^R5μM) [fold] | EC50 (HIV-1APV^R5μM) [µM] | fold change of EC50 HIV-1APV^R5μM vs HIV-1NL4-3 (HIV-1APV^R5μM) [fold] | EC50 (HIV-1SQV^R5μM) [µM] | fold change of EC50 HIV-1SQV^R5μM vs HIV-1NL4-3 (HIV-1SQV^R5μM) [fold] | also measured
1 | CC(C)CN(C[C@@H](O)[C@H](Cc1ccccc1)NC(=O)O[C@H]1CO[C@H]2OCC(F)(F)[C@H]21)S(=O)(=O)c1ccc(N)cc1 [GRL-05010] | 0.002 | 1 | 0.003 | 1 | 0.004 | 1 | 0.011 | 3 | 0.004 | 2 | 0.02 | 7 | 0.04 | 12 | 0.03 | 8 | 0.56 | 187 | 0.046 | 13 | Papp at 30 min, 100 μM (in vitro): 618 nm/s; EC50 [1]: 0.029 to 0.039 µM; EC50 (HIV-1ERS104pre; [2]): 0.0027 µM; EC50 (HIV-1LAI): 0.003 µM; Selectivity Index (HIV-1LAI): 12,333
2 | COc1ccc(S(=O)(=O)N(CC(C)C)C[C@@H](O)[C@H](Cc2ccccc2)NC(=O)OC2CO[C@H]3OCC(F)(F)[C@@H]23)cc1 (some centres unmarked) [GRL-04810] | 0.002 | 1 | 0.002 | 1 | 0.004 | 2 | 0.014 | 7 | 0.004 | 2 | 0.021 | 10 | 0.02 | 36 | 0.03 | 66 | 0.43 | 860 | 0.13 | 260 | Papp at 30 min, 100 μM (in vitro): 478 nm/s; EC50 [1]: 0.029 to 0.039 µM; EC50 (HIV-1ERS104pre; [2]): 0.0023 µM; EC50 (HIV-1LAI): 0.0008 µM; Selectivity Index (HIV-1LAI): 21,875
3 | CC(C)(C)NC(=O)[C@@H]1C[C@@H]2CCCC[C@@H]2CN1C[C@@H](O)[C@H](Cc1ccccc1)NC(=O)[C@H](CC(N)=O)NC(=O)c1ccc2ccccc2n1 [SQV, Saquinavir] | 0.31 | 78 | 0.11 | 27 | 0.039 | 10 | 0.35 | 90 | 0.1 | 25 | 0.53 | 133 | 0.46 | 12 | 0.025 | 1 | 0.09 | 2 | > 1 | > 25 | Papp at 30 min, 100 μM (in vitro): 49 nm/s; EC50 [1]: 0.032 to 0.036 µM; EC50 (HIV-1ERS104pre; Human immunodeficiency virus 1, read-out: EC50 HIV-1ERS104pre (X4)): 0.0039 µM; Selectivity Index (HIV-1LAI): 843
